Patent US11952337B2, “Bioenergetically active esters for health and disease” (University of Kansas, priority 2018, dated 2024)
“Also recorded” adds a separate entry of the source.

Experiments:
SH-SY5Y cells [1] = test: Respiration / oxygen consumption rate (OCR), Seahorse Extracellular Flux analyzer; assay type: cell-based, human; settings: for Effect on respiration (OCR), in words: SH-SY5Y cultured neuronal cells; for Increase of cellular respiration and/or glycolysis, near maximum possible levels: preliminary testing, FIGS. 2 and 3; for ATP-linked Respiration / Change in OCR post injection (1) / Maximum OCR / Post-Oligomycin (Leak Rate) OCR: average of three experiments
Experimental: (§1) In these experiments, oligomycin, FCCP, rotenone/antimycin, and 2-deoxyglucose were used to determine the proportion of oxygen that was consumed as part of the mitochondrial “leak” and “ATP production”; maximum and spare flux rates were also determined using standard established flux analysis protocols. […] FIG. 1D schematically summarizes this pathway.
(§2) For these measurements, oligomycin, FCCP, and rotenone/antimycin were used to determine mitochondrial respiration leak rates, the maximum oxygen consumption rate, and the non-mitochondrial oxygen consumption rate. […] The dose-response was logarithmic over a test range of 0.1 to 2 mM (FIG. 4). FIG. 3A illustrates respiration peaking at ˜40% enhancement, which is the maximum possible when mitochondria are chemically uncoupled.

SH-SY5Y cells [2] = test: Glycolysis flux (ECAR), Seahorse Extracellular Flux analyzer; assay type: cell-based, human
Experimental: as §1, §2

[3] = in solution, especially in the presence of amino acids; cited from earlier work
[4] = cited from earlier work
[5] = mice, cited from earlier work

CC(CC(=O)O)OC(=O)CC(=O)C(=O)OC(C)CC(=O)O (centres unmarked) [OAA(BHB)2, 3,3′-((2-oxosuccinyl)bis(oxy))dibutyric acid]
Increase in cell respiration (SH-SY5Y cells [1]; 1-mM dose, SH-SY5Y, FIG. 2, averages of three experiments): ~30% | Effect on respiration (OCR), in words (SH-SY5Y cells [1]): increases respiration | Increase of cellular respiration and/or glycolysis, near maximum possible levels (SH-SY5Y cells [1]): ~40%

O=C(O)CC(=O)C(=O)O [OAA, 2-oxosuccinic acid]
Increase in glycolysis flux capacity (SH-SY5Y cells [2]; 2 mM OAA, SH-SY5Y, FIG. 1B): about 50% | Effect on glycolysis flux (SH-SY5Y cells [2]; 2 mM, SH-SY5Y, FIG. 1B): enhances rather than impedes glycolysis flux | Increase in cellular respiration (SH-SY5Y cells [1]; OAA treatment, SH-SY5Y, FIG. 1C): about 50% | Effect on respiration (OCR), in words (SH-SY5Y cells [1]): increase aspects of mitochondrial respiration flux | Decarboxylation rate into pyruvate [3]: ~1 %/min | Safety profile ([4]; AD clinical study, doses up to 1 gram BID): excellent safety profile | Plasma level increase ([4]; PK study, 100 mg BID, AD participants): did not reveal a reliable plasma level increase | Brain changes ([5]; 1 g/kg/day and 2 g/kg/day): induced unequivocal brain changes | Activity of NFκB transcription factor (neuroinflammation) ([5]; intraperitoneal (IP) injection): lessened activity | Hippocampal neurogenesis ([5]; intraperitoneal (IP) injection): increased hippocampal neurogenesis | Insulin pathway signaling in brain ([5]; intraperitoneal (IP) injection): enhanced insulin pathway signaling | Mitochondrial biogenesis parameters in brain ([5]; intraperitoneal (IP) injection): promoted mitochondrial biogenesis parameters

CC(O)COC(=O)CC(=O)C(=O)OCC(C)O (centres unmarked) [OAA(PG)2, Bis(2-hydroxypropyl) 2-oxosuccinate]
Effect on glycolysis (ECAR) (SH-SY5Y cells [2]; 1, 2 and 5 mM OAA(PG)2, SH-SY5Y, FIG. 3B): without concomitantly creating a statistical reduction in the glycolysis flux; also recorded: insignificant effect on glycolysis | ATP-linked Respiration (SH-SY5Y cells [1]; 0.1 mM, SH-SY5Y): 50.1% | Change in OCR post injection (1) (SH-SY5Y cells [1]; 0.1 mM, SH-SY5Y): 101.7% | Maximum OCR (SH-SY5Y cells [1]; 0.1 mM, SH-SY5Y): 98.92% | Post-Oligomycin (Leak Rate) OCR (SH-SY5Y cells [1]; 0.1 mM, SH-SY5Y): 51.58% | ATP-linked Respiration (SH-SY5Y cells [1]; 0.25 mM, SH-SY5Y): 50.66% | Change in OCR post injection (1) (SH-SY5Y cells [1]; 0.25 mM, SH-SY5Y): 101.1% | Maximum OCR (SH-SY5Y cells [1]; 0.25 mM, SH-SY5Y): 93.08% | Post-Oligomycin (Leak Rate) OCR (SH-SY5Y cells [1]; 0.25 mM, SH-SY5Y): 50.46% | ATP-linked Respiration (SH-SY5Y cells [1]; 0.5 mM, SH-SY5Y): 44.78% | Change in OCR post injection (1) (SH-SY5Y cells [1]; 0.5 mM, SH-SY5Y): 103.9% | Maximum OCR (SH-SY5Y cells [1]; 0.5 mM, SH-SY5Y): 93.62% | Post-Oligomycin (Leak Rate) OCR (SH-SY5Y cells [1]; 0.5 mM, SH-SY5Y): 59.15% | ATP-linked Respiration (SH-SY5Y cells [1]; 1 mM, SH-SY5Y): 52.7% | Change in OCR post injection (1) (SH-SY5Y cells [1]; 1 mM, SH-SY5Y): 106.5% | Maximum OCR (SH-SY5Y cells [1]; 1 mM, SH-SY5Y): 81.46% | Post-Oligomycin (Leak Rate) OCR (SH-SY5Y cells [1]; 1 mM, SH-SY5Y): 53.8% | ATP-linked Respiration (SH-SY5Y cells [1]; 2 mM, SH-SY5Y): 68.89% | Change in OCR post injection (1) (SH-SY5Y cells [1]; 2 mM, SH-SY5Y): 119.8% | Maximum OCR (SH-SY5Y cells [1]; 2 mM, SH-SY5Y): 91.73% | Post-Oligomycin (Leak Rate) OCR (SH-SY5Y cells [1]; 2 mM, SH-SY5Y): 50.86% | Effect on respiration (OCR), in words (SH-SY5Y cells [1]): enhance respiration | Peak enhancement of respiration (SH-SY5Y cells [1]; SH-SY5Y, FIG. 3A, maximum possible when mitochondria are chemically uncoupled): ~40% | Increase of cellular respiration and/or glycolysis, near maximum possible levels (SH-SY5Y cells [1]): ~40% | Shape of dose-response of respiration (SH-SY5Y cells [1]; test range of 0.1 to 2 mM, FIG. 4): logarithmic

CC(O)C(=O)O (centres unmarked) [lactate, reference compound]
Effect on respiration, in words (SH-SY5Y cells [1]; experiments not further specified): effectively promote respiration
